Source: patent publication US9914737B2, “Triazolopyrimidinone or triazolopyridinone derivatives, and use thereof” (ST PHARM CO., LTD., priority 2014, dated 2018)

Target: T1, tankyrase 1 (Homo sapiens, UniProt O95271)
T1 construct: purchased Trevigen 4700-096-K
T1 sequence (O95271 1-1327): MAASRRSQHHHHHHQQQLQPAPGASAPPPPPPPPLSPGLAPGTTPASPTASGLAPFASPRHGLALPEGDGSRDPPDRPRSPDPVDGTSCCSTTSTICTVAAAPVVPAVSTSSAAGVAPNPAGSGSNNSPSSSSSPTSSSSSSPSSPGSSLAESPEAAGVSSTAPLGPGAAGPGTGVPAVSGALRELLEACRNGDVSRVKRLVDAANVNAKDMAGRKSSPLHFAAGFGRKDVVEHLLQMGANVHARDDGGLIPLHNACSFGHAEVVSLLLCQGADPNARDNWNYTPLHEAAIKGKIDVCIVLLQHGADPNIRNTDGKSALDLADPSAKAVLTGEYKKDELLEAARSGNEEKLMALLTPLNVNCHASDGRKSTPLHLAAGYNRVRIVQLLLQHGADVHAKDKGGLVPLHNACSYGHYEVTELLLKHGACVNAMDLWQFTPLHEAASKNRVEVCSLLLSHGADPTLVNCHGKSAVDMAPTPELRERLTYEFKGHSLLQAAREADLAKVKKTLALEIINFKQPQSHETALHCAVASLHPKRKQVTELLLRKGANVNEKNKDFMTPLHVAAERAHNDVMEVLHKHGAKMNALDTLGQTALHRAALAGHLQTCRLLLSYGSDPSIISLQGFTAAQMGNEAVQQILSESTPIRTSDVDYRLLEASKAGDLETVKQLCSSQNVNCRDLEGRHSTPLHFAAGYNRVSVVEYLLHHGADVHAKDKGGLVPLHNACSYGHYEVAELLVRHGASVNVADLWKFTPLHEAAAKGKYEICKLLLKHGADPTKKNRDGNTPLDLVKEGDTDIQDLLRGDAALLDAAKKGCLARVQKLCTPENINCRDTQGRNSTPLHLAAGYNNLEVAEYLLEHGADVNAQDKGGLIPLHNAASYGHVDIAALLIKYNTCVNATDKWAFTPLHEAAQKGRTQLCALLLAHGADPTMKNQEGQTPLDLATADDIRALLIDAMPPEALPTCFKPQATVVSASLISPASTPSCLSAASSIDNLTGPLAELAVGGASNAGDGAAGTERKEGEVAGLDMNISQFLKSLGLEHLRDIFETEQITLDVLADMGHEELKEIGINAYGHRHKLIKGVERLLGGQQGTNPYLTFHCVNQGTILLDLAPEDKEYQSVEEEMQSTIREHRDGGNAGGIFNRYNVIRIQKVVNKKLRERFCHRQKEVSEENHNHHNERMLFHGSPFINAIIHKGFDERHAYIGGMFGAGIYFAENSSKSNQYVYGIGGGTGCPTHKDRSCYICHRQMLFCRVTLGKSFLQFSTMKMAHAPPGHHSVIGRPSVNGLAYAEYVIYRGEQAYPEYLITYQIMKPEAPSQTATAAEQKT
Assay: Analysis of activity of tankyrase 1 (Trevigen kit, ELISA absorbance at 450 nm)
Assay type: biochemical
Conditions: tankyrase 1 enzyme, Trevigen kit Cat. No. 4700-096-K, 30 min at rt; read-out: TNKS1 (IC50)

Row | Structure (SMILES) | IC50
1 | Cn1nnc2c(=O)[nH]c(N3CCN(c4c(F)cc(OCCN5CCC(N)CC5)cc4F)CC3)nc21 [compound 39, 5-(4-(4-(2-(4-Aminopiperidin-1-yl)ethoxy)-2,6-difluorophenyl)piperazin-1-yl)-3-methyl-3H-[1,2,3]triazolo[4,5-d]pyrimidin-7(6H)-one] | 22.7 nM
2 | CN(C)CCOc1cc(F)c(N2CCN(c3nc4c(nnn4C)c(=O)[nH]3)CC2)c(F)c1 [compound 6, 5-(4-(4-(2-(Dimethylamino)ethoxy)-2,6-difluorophenyl)piperazin-1-yl)-3-methyl-3H-[1,2,3]triazolo[4,5-d]pyrimidin-7(6H)-one] | 16.3 nM
